Earlier results as cited in patent US9927424B2, “Assays for identifying compounds that modulate bitter taste” (Chromocell Corporation, priority 2013, dated 2018).

What was measured:
Conditions in all cases: PCT/US12/61400; cited from earlier work
[1] = target: T1, TAS2R9 (Homo sapiens, UniProt Q9NYW1)
T1 construct: expressed in transfected cells
T1 sequence (Q9NYW1 1-312): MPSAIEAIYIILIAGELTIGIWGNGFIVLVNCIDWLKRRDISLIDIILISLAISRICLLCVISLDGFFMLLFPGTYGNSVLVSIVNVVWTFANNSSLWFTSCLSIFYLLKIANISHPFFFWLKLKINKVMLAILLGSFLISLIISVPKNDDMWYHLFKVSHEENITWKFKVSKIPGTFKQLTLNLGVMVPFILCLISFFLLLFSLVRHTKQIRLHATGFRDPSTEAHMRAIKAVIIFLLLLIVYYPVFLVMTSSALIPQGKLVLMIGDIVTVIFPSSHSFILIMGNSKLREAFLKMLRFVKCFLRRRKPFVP

[2] = target: T2, TAS2R14 (Homo sapiens, UniProt Q9NYV8)
T2 construct: expressed in transfected cells
T2 sequence (Q9NYV8 1-317): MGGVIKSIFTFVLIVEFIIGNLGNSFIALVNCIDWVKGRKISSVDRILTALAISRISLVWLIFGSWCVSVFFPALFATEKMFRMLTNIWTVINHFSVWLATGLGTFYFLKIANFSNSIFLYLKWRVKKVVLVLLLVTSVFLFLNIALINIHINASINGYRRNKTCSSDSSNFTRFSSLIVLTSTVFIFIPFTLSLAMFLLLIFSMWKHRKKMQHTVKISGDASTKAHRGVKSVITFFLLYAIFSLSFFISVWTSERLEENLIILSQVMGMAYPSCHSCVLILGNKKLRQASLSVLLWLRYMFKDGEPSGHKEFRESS

[3] = target: T3, TAS2R4 (Homo sapiens, UniProt Q9NYW5)
T3 construct: expressed in transfected cells
T3 sequence (Q9NYW5 1-299): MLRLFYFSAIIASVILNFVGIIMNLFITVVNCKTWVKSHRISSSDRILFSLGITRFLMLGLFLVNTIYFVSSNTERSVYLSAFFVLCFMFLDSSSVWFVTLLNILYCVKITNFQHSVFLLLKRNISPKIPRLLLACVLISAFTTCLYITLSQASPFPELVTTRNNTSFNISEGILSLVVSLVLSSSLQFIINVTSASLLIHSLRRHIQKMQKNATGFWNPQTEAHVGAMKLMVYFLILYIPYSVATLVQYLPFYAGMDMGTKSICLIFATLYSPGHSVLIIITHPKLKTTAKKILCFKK

[4] = target: T4, TAS2R44 (Homo sapiens, UniProt P59538)
T4 construct: expressed in transfected cells
T4 sequence (P59538 1-309): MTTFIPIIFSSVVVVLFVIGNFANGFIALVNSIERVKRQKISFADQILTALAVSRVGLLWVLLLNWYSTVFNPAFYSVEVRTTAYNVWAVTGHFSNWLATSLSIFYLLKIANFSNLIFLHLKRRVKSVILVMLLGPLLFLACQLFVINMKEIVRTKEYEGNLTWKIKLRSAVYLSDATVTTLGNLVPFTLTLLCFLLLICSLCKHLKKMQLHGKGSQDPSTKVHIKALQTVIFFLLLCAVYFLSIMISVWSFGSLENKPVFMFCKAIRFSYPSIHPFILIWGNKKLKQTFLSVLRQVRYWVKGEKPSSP

[Cl-].[K+] [KCl]
specifically respond: TAS2R9 response to stimulation, previously shown [1] | TAS2R14 response to stimulation, previously shown [2] | TAS2R4 response to stimulation, previously shown [3] | TAS2R44 response to stimulation, previously shown [4]
